# Laboratory results published in US12653459B2, “Systems, devices, and methods for blood pressure control” (Massachusetts Institute of Technology, priority 2022, dated 2026).
# Columns and labels:
# [1] = two-compartment model of NI; mean ± spread; cited from earlier work
# [2] = human, in vivo
# Text: In two-compartment modeling, there is a central compartment and a peripheral compartment. […] The peripheral compartment contains tissues, including fat and bone, which uptake the drug at a slower rate than the central compartment.
# where c1 in [mcg·L^−1] is the drug concentration in the central compartment, c2 in [mcg·L^−1] is the drug concentration in the peripheral compartment, kel in [min^−1] is the elimination rate constant, k12 in [min^−1] is the rate constant of distribution from the central compartment to the peripheral compartment, k21 in [min^−1] is the rate constant of distribution from the peripheral compartment to the central compartment, V1 in [L] is the volume of distribution of the central or first compartment, and u in [mcg·min^−1] represents the input infusion rate of a drug into the system. The constants defined in this model correspond to mass flow rate constants, which are traditionally estimated from empirical PK studies. As such, the formulation of Eq. 1.3 represents the dynamics of drug concentrations in the body in terms of mass flow rate constants. […] This model is time-invariant.
# The volume in the central compartment, given in 0.32±0.19 in [L·kg^−1], is converted to
# [formula] in [L] by multiplying by 85.41 in [kg], the average weight of the patient cohort. The following values are also derived:
# [formula] […] It should be appreciated again these empirical values are mass flow rate constants.
# From these parameters, k12, k21, and kel can be derived using the following,
smiles,measurement,setting,value
"COC(=O)C1=C(C)NC(C)=C(C(=O)OCCN(C)Cc2ccccc2)C1c1cccc([N+](=O)[O-])c1 (stereo not drawn) [NI, nicardipine]","V1, the volume of distribution in the central compartment",[1],0.32 ± 0.19 L/kg
same,"t1/2α, the distribution half-life",[1],0.278 ± 0.18 h
same,"t1/2β, the elimination half-life",[1],11.49 ± 5.76 h
same,"k12, rate constant of distribution from the central compartment to the peripheral compartment",[2],≈ 0.0183 min^−1
same,"k21, rate constant of distribution from the peripheral compartment to the central compartment",[2],≈ 0.0019 min^−1
same,"kel, elimination rate constant",[2],≈ 0.0223 min^−1
